# Assay results from patent publication US10961215B2, “N-aryl and N-heteroaryl piperidine derivatives as liver X receptor beta agonists, compositions, and their use” (Merck Sharp & Dohme Corp., priority 2016, dated 2021).
# pEC50: −log10 of the molar value.
# What was measured:
# [1] = molecular target: T1, GST tagged LXRalpha LBD (ligand binding domain) (Homo sapiens, UniProt Q13133); assay: LanthaScreen TR-FRET Liver X Receptor Coactivator Assay, LXR alpha-LBD (co-activator recruitment; IP and % Emax relative to T0901317); assay type: biochemical; conditions: for LXR alpha IP (nM) / pEC50: Inflection Point of co-activator recruitment, LXR alpha-LBD, TR-FRET; for Emax / LXR alpha actiivty at max dose (%): efficacy at max dose in relation to reference T0901317, LXR alpha-LBD; for Emax: read-out: LXR alpha actiivty at max dose (%)
# T1 construct: purchased Invitrogen pv4655
# T1 sequence (Q13133 209-447 limits assumed): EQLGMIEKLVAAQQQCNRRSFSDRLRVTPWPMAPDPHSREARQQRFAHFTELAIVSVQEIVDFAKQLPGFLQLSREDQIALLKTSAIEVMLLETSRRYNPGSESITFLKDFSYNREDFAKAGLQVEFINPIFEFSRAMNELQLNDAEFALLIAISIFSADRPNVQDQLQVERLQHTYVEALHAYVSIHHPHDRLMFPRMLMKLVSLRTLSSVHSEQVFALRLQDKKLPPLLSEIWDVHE
# Method: (§1) Potency (Inflection Point, IP) and efficacy (Emax) are evaluated via compound-induced co-activator recruitment to glutathione-S-transferase (GST) tagged LXRbeta and LXRalpha LBD (ligand binding domain) proteins in relation to reference dual agonist compound T0901317 (N-(2,2,2-Trifluoroethyl)-N-[4-[2,2,2-trifluoro-1-hydroxy-1-(trifluoromethyl)ethyl]phenyl]benzenesulfonamide) using the LanthaScreen™ TR-FRET Liver X Receptor Coactivator Assays according to manufacturer's instructions (Invitrogen catalog number pv4658.pps and pv4655). While running the LanthaScreen™ TR-FRET Liver X Receptor Coactivator Assay, LXR alpha-LBD or LXR beta-LBD was added to ligand test compounds followed by addition of a mixture of a fluorescein-labelled coactivator peptide and terbium-conjugated anti-GST antibody. After an incubation period at room temperature, TR-FRET (time-resolved fluorescence resonance energy transfer) was measured using a filter-based instrument capable of TR-FRET, e.g. PerkinElmer Envision.
# [2] = molecular target: T2, GST tagged LXRbeta LBD (ligand binding domain) (Homo sapiens, UniProt P55055); assay: LanthaScreen TR-FRET Liver X Receptor Coactivator Assay, LXR beta-LBD (co-activator recruitment; IP and % Emax relative to T0901317); assay type: biochemical; conditions: for pEC50: Inflection Point of co-activator recruitment, LXR beta-LBD, TR-FRET; for Emax / LXR beta actiivty at max dose (%): efficacy at max dose in relation to reference T0901317, LXR beta-LBD; for Emax: read-out: LXR beta actiivty at max dose (%)
# T2 construct: purchased Invitrogen pv4658.pps
# T2 sequence (P55055 222-460 limits assumed): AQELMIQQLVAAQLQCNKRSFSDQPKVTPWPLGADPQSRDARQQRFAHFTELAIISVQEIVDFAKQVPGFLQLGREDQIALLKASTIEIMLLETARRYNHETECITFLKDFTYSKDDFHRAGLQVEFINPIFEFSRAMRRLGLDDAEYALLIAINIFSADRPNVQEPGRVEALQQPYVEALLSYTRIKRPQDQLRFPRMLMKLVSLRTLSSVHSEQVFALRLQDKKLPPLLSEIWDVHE
# Method: as §1
Compound,LXR alpha IP (nM) [1],Emax [1],pEC50 [2],Emax [2],pEC50 [1],LXR beta actiivty at max dose (%) [2],LXR alpha actiivty at max dose (%) [1],"activity (stated in words in the synthesis text) ([2]; cis/trans isomers of Example 11-1 separated by Prep-HPLC (RT=1.95 min, 1.98 min), assay not given)"
"COc1cccc([C@@](O)(C(=O)N(C)C[C@H](C)CC2CCN(c3ccc(C(=O)N(C)C)c(Cl)n3)CC2)C(F)(F)F)c1 (single isomer, unassigned) [Example 3-1]",No IP,16%,7.60,70%,–,–,–,–
"COc1cccc([C@@](O)(C(=O)N(C)CC(C)CC2CCN(c3ccc(C(=O)N(C)C)c(Cl)n3)CC2)C(F)(F)F)c1 (single isomer, unassigned) [Example 3-2]",No IP,0%,7.28,81%,–,–,–,–
"COc1cccc([C@@](O)(C(=O)N(C)C2CC(CC3CCN(c4ccc(C(=O)N(C)C)c(C)n4)CC3)C2)C(F)(F)F)c1 (single isomer, unassigned) [first eluting peak]",–,–,–,–,–,–,–,not active
"CN(C)C(=O)c1ccc(N2CCC(CCCN(C)C(=O)[C@](O)(c3ccccc3)C(F)(F)F)CC2)nc1Cl [Example 1-1, (R)-2-chloro-N,N-dimethyl-6-(4-(3-(3,3,3-trifluoro-2-hydroxy-N-methyl-2-phenylpropanamido)propyl)piperidin-1-yl)nicotinamide]",–,–,–,–,6.12,78%,27%,–
"CC(C)[C@](O)(C(=O)N(C)CCCC1CCN(c2ccc(C(=O)N(C)C)c(Cl)n2)CC1)c1ccccc1 [Example 1-2, (R)-2-chloro-6-(4-(3-(2-hydroxy-N,3-dimethyl-2-phenylbutanamido)propyl)piperidin-1-yl)-N,N-dimethylnicotinamide]",No IP,16%,6.59,68%,–,–,–,–
"CC(C)[C@@](O)(C(=O)N(C)CCCC1CCN(c2ccc(C(=O)N(C)C)c(Cl)n2)CC1)C(F)(F)F [Example 1-3, (R)-2-chloro-6-(4-(3-(2-hydroxy-N,3-dimethyl-2-(trifluoromethyl)butanamido)propyl)piperidin-1-yl)-N,N-dimethylnicotinamide]",–,40%,6.80,102%,5.75,–,–,–
"CC(C)[C@](O)(C(=O)N(C)CCCC1CCN(c2ccc(C(=O)N(C)C)c(Cl)n2)CC1)C(F)(F)F [Example 1-4, (S)-2-chloro-6-(4-(3-(2-hydroxy-N,3-dimethyl-2-(trifluoromethyl)butanamido)propyl)piperidin-1-yl)-N,N-dimethylnicotinamide]",–,52%,7.09,92%,5.93,–,–,–
"CN(C)C(=O)c1ccc(N2CCC(CCCN(C)C(=O)[C@@]3(c4ccccc4F)CCCO3)CC2)nc1Cl [Example 1-5, (S)-2-chloro-6-(4-(3-(2-(2-fluorophenyl)-N-methyl-tetrahydrofuran-2-carboxamido)propyl)piperidin-1-yl)-N,N-dimethylnicotinamide]",No IP,6%,7.26,82%,–,–,–,–
"CN(C)C(=O)c1ccc(N2CCC(CCCN(C)C(=O)[C@]3(c4ccccc4F)CCCO3)CC2)nc1Cl [Example 1-6, (R)-2-chloro-6-(4-(3-(2-(2-fluorophenyl)-N-methyl-tetrahydrofuran-2-carboxamido)propyl)piperidin-1-yl)-N,N-dimethylnicotinamide]",–,27%,7.19,80%,5.84,–,–,–
"CN(C)C(=O)c1ccc(N2CCC(CCCN(C)C(=O)[C@@]3(C(F)(F)F)CCCO3)CC2)nc1Cl [Example 1-7, (R)-2-chloro-N,N-dimethyl-6-(4-(3-(N-methyl-2-(trifluoromethyl)-tetrahydrofuran-2-carboxamido)propyl)piperidin-1-yl)nicotinamide]",–,57%,6.84,94%,5.60,–,–,–

# Next, values leading:
LXR alpha IP (nM) [1],Emax [1],pEC50 [2],Emax [2],pEC50 [1],LXR beta actiivty at max dose (%) [2],LXR alpha actiivty at max dose (%) [1],"activity (stated in words in the synthesis text) ([2]; cis/trans isomers of Example 11-1 separated by Prep-HPLC (RT=1.95 min, 1.98 min), assay not given)",Compound
–,14%,7.35,–,5.80,59%,–,–,"CN(C)C(=O)c1ccc(N2CCC(CCCN(C)C(=O)C(O)(c3ccccc3)C(F)(F)F)CC2)cc1Cl (single isomer, unassigned) [Example 4-4, 2-chloro-N,N-dimethyl-4-(4-(3-(3,3,3-trifluoro-2-hydroxy-N-methyl-2-phenylpropanamido)propyl)piperidin-1-yl)benzamide]"
–,–,7.11,–,6.17,73%,15%,–,"CN(C)C(=O)c1ccc(N2CCC(CCCN(C)C(=O)C(O)(c3ccccc3)C(F)(F)F)CC2)cc1Cl (single isomer, unassigned) [Example 4-6, 2-chloro-N,N-dimethyl-4-(4-(3-(3,3,3-trifluoro-2-hydroxy-N-methyl-2-phenylpropanamido)propyl)piperidin-1-yl)benzamide]"
No IP,–,6.43,–,–,48%,12%,–,"CN(C)C(=O)c1ccc(N2CCC(CCCN(C)C(=O)C(O)(c3ccccc3)C(F)(F)F)CC2)cc1Cl (single isomer, unassigned) [Example 4-7, 2-chloro-N,N-dimethyl-4-(4-(3-(3,3,3-trifluoro-2-hydroxy-N-methyl-2-phenylpropanamido)propyl)piperidin-1-yl)benzamide]"
–,42%,7.66,64%,6.30,–,–,–,"CNC(=O)c1ccc(N2CCC3(CC2)C[C@H]3CCN(C)C(=O)[C@](O)(c2ccccc2)C(F)(F)F)cc1Cl (single isomer, unassigned) [Example 7-7]"
No IP,0%,6.14,42%,–,–,–,–,"COc1cccc([C@@](O)(C(=O)N(C)C2CC(CC3CCN(c4ccc(C(=O)N(C)C)c(C)n4)CC3)C2)C(F)(F)F)c1 (single isomer, unassigned) [Example 11-1]"
–,26%,7.70,64%,6.08,–,–,–,"CN(C)C(=O)c1ccc(N2CCC3(CC2)CC3CCN(C)C(=O)[C@](O)(c2cccc(OC(F)(F)F)c2)C(F)(F)F)cc1Cl (stereo in doubt) [Example 7-4, 2-chloro-N,N-dimethyl-4-((R)-1-(2-((R)-3,3,3-trifluoro-2-hydroxy-N-methyl-2-(3-(trifluoromethoxy)phenyl)propanamido)ethyl)-6-azaspiro[2.5]octan-6-yl) benzamide]"
–,27%,7.12,58%,6.16,–,–,–,"COc1cccc([C@@](O)(C(=O)N(C)CCC2CC23CCN(c2ccc(C(=O)NC(C)C)c(Cl)n2)CC3)C(F)(F)F)c1 (stereo in doubt) [Example 7-19, 2-chloro-N-isopropyl-6-((R)-1-(2-((R)-3,3,3-trifluoro-2-hydroxy-2-(3-methoxyphenyl)-N-methylpropanamido)ethyl)-6-azaspiro[2.5]octan-6-yl)nicotinamide]"
–,40%,7.44,60%,5.93,–,–,–,"CNC(=O)c1ccc(N2CCC3(CC2)CC3CCN(C)C(=O)[C@](O)(c2cccc(OC)c2)C(F)(F)F)nc1Cl (stereo in doubt) [Example 7-20, 2-chloro-N-methyl-6-((R)-1-(2-((R)-3,3,3-trifluoro-2-hydroxy-2-(3-methoxyphenyl)-N-methylpropanamido)ethyl)-6-azaspiro[2.5]octan-6-yl)nicotinamide]"
